Experimental data published in ChEMBL document CHEMBL4334533, “Design, synthesis, and validation of novel nitrogen-based chalcone analogs against triple negative breast cancer” (Eur J Med Chem, 2020).
Calls of active or inactive are those of the source. The rule behind the calls is not given here.

Legend:
MDA-MB-231 [1] = assay: Up regulation of pan-cadherin level in human MDA-MB-231 cells up to 10 uM by Western blot analysis; format: functional, cell-based
[2] = Cytotoxicity against E6/E7 immortalized human HNME cells assessed as inhibition of cell growth measured after 48 hrs by microplate reader analysis; format: cell-based; settings: read-out: LD50
MDA-MB-231 [3] = assay: Growth inhibition in human MDA-MB-231 cells at 10 uM after 48 hrs by MTT assay; format: functional, cell-based
MCF7 [4] = assay: Growth inhibition in human MCF7 cells at 10 uM after 48 hrs by MTT assay; format: functional, cell-based
MDA-MB-231 [5] = assay: Induction of morphological changes in human MDA-MB-231 cells assessed as mesenchymal-epithelial transition at 10 uM by inverted microscopic analysis; format: functional, cell-based
MDA-MB-468 [6] = assay: Induction of morphological changes in human MDA-MB-468 cells assessed as mesenchymal-epithelial transition at 10 uM by inverted microscopic analysis; format: functional, cell-based
MCF7 [7] = assay: Induction of morphological changes in human MCF7 cells assessed as mesenchymal-epithelial transition at 10 uM by inverted microscopic analysis; format: functional, cell-based
MDA-MB-231 [8] = assay: Antimigratory activity in human MDA-MB-231 cells assessed as wound diameter at 5 uM measured after 24 hrs by microscopic analysis; format: functional, cell-based
MDA-MB-231 [9] = assay: Antimigratory activity in human MDA-MB-231 cells assessed as wound diameter measured after 24 hrs by microscopic analysis (reference value: 29.5 +/- 1.95%); format: functional
MDA-MB-231 [10] = assay: Antiproliferative activity against human MDA-MB-231 cells assessed as inhibition of cell growth measured after 48 hrs by microplate reader analysis; format: functional, cell-based; settings: MDA-MB-231, 48 h
MDA-MB-468 [11] = assay: Antiproliferative activity against human MDA-MB-468 cells assessed as inhibition of cell growth measured after 48 hrs by microplate reader analysis; format: functional, cell-based; settings: MDA-MB-468, 48 h
MCF7 [12] = assay: Antiproliferative activity against human MCF7 cells assessed as inhibition of cell growth measured after 48 hrs by microplate reader analysis; format: functional, cell-based; settings: MCF7, 48 h
[13] = Selectivity index, ratio of LD50 for E6/E7 immortalized human HNME cells to IC50 for human MDA-MB-231 cells
[14] = Selectivity index, ratio of LD50 for E6/E7 immortalized human HNME cells to IC50 for human MDA-MB-468 cells
[15] = Selectivity index, ratio of LD50 for E6/E7 immortalized human HNME cells to IC50 for human MCF7 cells
MDA-MB-468 [16] = assay: Induction of apoptosis in human MDA-MB-468 cells assessed as necrotic cells at 8 uM measured after 48 hrs by AnnexinV/7-AAD staining based flow cytometric analysis (reference value: 0.51%); format: functional
MDA-MB-468 [17] = assay: Induction of apoptosis in human MDA-MB-468 cells assessed as viable cells at 8 uM measured after 24 hrs by AnnexinV/7-AAD staining based flow cytometric analysis (reference value: 94.1%); format: functional; settings: MDA-MB-468, 24 h, read-out: Activity
MDA-MB-468 [18] = assay: Induction of apoptosis in human MDA-MB-468 cells assessed as early apoptotic cells at 8 uM measured after 24 hrs by AnnexinV/7-AAD staining based flow cytometric analysis (reference value: 3.45%); format: functional
MDA-MB-468 [19] = assay: Induction of apoptosis in human MDA-MB-468 cells assessed as late apoptotic cells at 8 uM measured after 24 hrs by AnnexinV/7-AAD staining based flow cytometric analysis (reference value: 1.86%); format: functional
MDA-MB-468 [20] = assay: Induction of apoptosis in human MDA-MB-468 cells assessed as necrotic cells at 8 uM measured after 24 hrs by AnnexinV/7-AAD staining based flow cytometric analysis (reference value: 0.62%); format: functional
MDA-MB-468 [21] = assay: Induction of apoptosis in human MDA-MB-468 cells assessed as viable cells at 8 uM measured after 48 hrs by AnnexinV/7-AAD staining based flow cytometric analysis (reference value: 92.5%); format: functional; settings: MDA-MB-468, 48 h, read-out: Activity
MDA-MB-468 [22] = assay: Induction of apoptosis in human MDA-MB-468 cells assessed as early apoptotic cells at 8 uM measured after 48 hrs by AnnexinV/7-AAD staining based flow cytometric analysis (reference value: 4.15%); format: functional
MDA-MB-468 [23] = assay: Induction of apoptosis in human MDA-MB-468 cells assessed as late apoptotic cells at 8 uM measured after 48 hrs by AnnexinV/7-AAD staining based flow cytometric analysis (reference value: 2.83%); format: functional
MDA-MB-468 [24] = assay: Induction of apoptosis in human MDA-MB-468 cells assessed as increase in BAX/Bcl2 expression ratio upto 10 uM measured after 48 hrs by western blot analysis; format: functional, cell-based
MCF7 [25] = assay: Induction of apoptosis in human MCF7 cells assessed as increase in BAX/Bcl2 expression ratio upto 10 uM measured after 48 hrs by western blot analysis; format: functional, cell-based
MDA-MB-231 [26] = assay: Cell cycle arrest in human MDA-MB-231 cells assessed as accumulation at G2/M phase at 5 uM measured after 48 hrs by propidium iodide staining-based flow cytometric analysis relative to control; format: functional
MDA-MB-468 [27] = assay: Cell cycle arrest in human MDA-MB-468 cells assessed as accumulation at G2/M phase at 5 uM measured after 48 hrs by propidium iodide staining-based flow cytometric analysis relative to control; format: functional
MDA-MB-231 [28] = assay: Antiinvasive activity in human MDA-MB-231 cells assessed as reduction in 10% FBS-induced cell invasion at 5 uM by crystal violet staining based matrigel assay relative to control; format: functional; design: scale not given: the % may be the effect or the level left
MDA-MB-231 [29] = assay: Antimigratory activity in human MDA-MB-231 cells assessed as inhibition of cell motility after 24 hrs by microscopic analysis; format: functional, cell-based; settings: MDA-MB-231, 24 h
MCF7 [30] = assay: Antimigratory activity in human MCF7 cells assessed as inhibition of cell motility after 24 hrs by microscopic analysis; format: functional, cell-based; settings: MCF7, 24 h
MDA-MB-231 [31] = assay: Up regulation of E-cadherin level in human MDA-MB-231 cells up to 10 uM by Western blot analysis; format: functional, cell-based
MDA-MB-231 [32] = assay: Down regulation of FAK level in human MDA-MB-231 cells up to 10 uM by Western blot analysis; format: functional, cell-based
MCF7 [33] = assay: Up regulation of pan-cadherin level in human MCF7 cells up to 10 uM by Western blot analysis; format: functional, cell-based
MCF7 [34] = assay: Up regulation of E-cadherin level in human MCF7 cells up to 10 uM by Western blot analysis; format: functional, cell-based
Chorioallantoic membrane = assay: Antiangiogenic activity in Leghorn chicken fertilized egg chorioallantoic membrane assessed as reduction in number of blood vessels at 4 ug measured after 4 days by microscopic analysis relative to control; format: functional, tissue-based; design: scale not given: the % may be the effect or the level left; settings: Gallus gallus
MDA-MB-231 [35] = assay: Inhibition of anchorage-independent colony formation in human MDA-MB-231 cells at 5 uM measured upto 21 days by soft agar colony formation assay; format: functional, cell-based
MDA-MB-468 [36] = assay: Inhibition of anchorage-independent colony formation in human MDA-MB-468 cells at 5 uM measured upto 21 days by soft agar colony formation assay; format: functional, cell-based
MCF7 [37] = assay: Inhibition of anchorage-independent colony formation in human MCF7 cells at 5 uM measured upto 21 days by soft agar colony formation assay; format: functional, cell-based
[38] = Toxicity in athymic nude mouse xenografted with human MDA-MB-231 cells assessed as change in food intake at 10 mg/kg, ip administered measured for 14 days; format: organism-based; settings: in vivo, 336 h
[39] = Toxicity in athymic nude mouse xenografted with human MDA-MB-231 cells assessed as change in body weight at 10 mg/kg, ip administered for 14 days; format: organism-based; settings: in vivo, 336 h
[40] = Toxicity in athymic nude mouse xenografted with human MDA-MB-231 cells assessed as behavioral change at 10 mg/kg, ip administered for 14 days; format: organism-based; settings: in vivo, 336 h
MDA-MB-231 [41] = assay: Antitumor activity against human MDA-MB-231 cells xenografted in athymic nude mouse assessed as the inhibition of tumor growth at 10 mg/kg, ip dosed 3 times per week for 45 days relative to control; format: functional; settings: MDA-MB-231, ip, 1080 h
MDA-MB-231 [42] = assay: Antitumor activity against human MDA-MB-231 cells xenografted in athymic nude mouse assessed as the reduction in tumor weight at 10 mg/kg, ip dosed 3 times per week for 45 days (reference value: 1.58 +/- 0.283 g); format: functional
MDA-MB-231 [43] = assay: Inhibition of tumor growth in human MDA-MB-231 cells xenografted in nude mouse; format: functional
MDA-MB-231 [44] = assay: Antitumor activity against human MDA-MB-231 cells xenografted in athymic nude mouse assessed as time delay in tumor growth at 10 mg/kg, ip dosed 5 times per week preincubated for 15 days measured after 30 days relative to control; format: functional, organism-based
[45] = Toxicity in athymic nude mouse xenografted with human MDA-MB-231 cells assessed as effect on survival rate at 10 mg/kg, ip dosed 5 times per week preincubated for 15 days measured after 30 days; format: organism-based; settings: in vivo, 720 h
MDA-MB-468 [46] = assay: Antiinvasive activity in human MDA-MB-468 cells assessed as reduction in 10% FBS-induced cell invasion at 5 uM by crystal violet staining based matrigel assay relative to control; format: functional
MCF7 [47] = assay: Antiinvasive activity in human MCF7 cells assessed as reduction in 10% FBS-induced cell invasion at 5 uM by crystal violet staining based matrigel assay relative to control; format: functional
MDA-MB-231 [48] = assay: Antitumor activity against human MDA-MB-231 cells xenografted in athymic nude mouse assessed as the reduction in tumor volume at 10 mg/kg, ip dosed 3 times per week for 45 days (reference value: 1350 mm3); format: functional

COc1cccc(C(=O)/C=C/c2ccc(N(CCCl)CCCl)cc2)c1
Activity (MDA-MB-231 [1]): Active
CC50 at 48 h [2]: 21.3 µM
growth inhibition (GI) (MDA-MB-231 [3]): Active
growth inhibition (GI) (MCF7 [4]): Active
Activity (MDA-MB-231 [5]): Active
Activity (MDA-MB-468 [6]): Active
Activity (MCF7 [7]): Active
Activity (MDA-MB-231 [8]): Active
inhibition (INH) (MDA-MB-231 [9]): 67.89%
IC50 (MDA-MB-231 [10]): 8 µM
IC50 (MDA-MB-468 [11]): 7.3 µM
IC50 (MCF7 [12]): 6.43 µM
Ratio LD50/IC50 [13]: 2.66
Ratio LD50/IC50 [14]: 2.92
Ratio LD50/IC50 [15]: 3.31
Activity (MDA-MB-468 [16]): 3.63%
viability at 8 µM (MDA-MB-468 [17]): 88.2%
Activity (MDA-MB-468 [18]): 9.04%
Activity (MDA-MB-468 [19]): 2.13%
Activity (MDA-MB-468 [20]): 0.61%
viability at 8 µM (MDA-MB-468 [21]): 57.3%
Activity (MDA-MB-468 [22]): 28%
Activity (MDA-MB-468 [23]): 11.1%
Activity (MDA-MB-468 [24]): Active
Activity (MCF7 [25]): Active
Activity (MDA-MB-231 [26]): 47.27%
Activity (MDA-MB-468 [27]): 66.45%
Activity (MDA-MB-231 [28]): 80%
IC50 (MDA-MB-231 [29]): 3 µM
IC50 (MCF7 [30]): 2.44 µM
Activity (MDA-MB-231 [31]): Active
Activity (MDA-MB-231 [32]): Active
Activity (MCF7 [33]): Active
Activity (MCF7 [34]): Active
Activity (Chorioallantoic membrane): 60.2%
inhibition (MDA-MB-231 [35]): Active
colony formation inhibition (active/inactive) (MDA-MB-468 [36]): Active
colony formation inhibition (activity call) (MCF7 [37]): Active
Activity [38]: Non-Toxic
Activity [39]: Non-Toxic
Activity [40]: Non-Toxic
inhibition in vivo at 10 mg/kg (MDA-MB-231 [41]): 46.4%
Activity (MDA-MB-231 [42]): 0.88 g
inhibition (INH) (MDA-MB-231 [43]): 57%
Activity (MDA-MB-231 [44]): Active
Activity [45]: Non-Toxic
Activity (MDA-MB-468 [46]): Active
Activity (MCF7 [47]): Active
Activity (MDA-MB-231 [48]): 487.26 mm3

O=C(/C=C/c1ccc(N2CCCC2)cc1)c1ccc2c(c1)OCO2
Activity (MDA-MB-231 [8]): Active
IC50 (MDA-MB-231 [29]): 5.71 µM
